Like-named read-outs stand apart in the source and are kept apart here. No end group written: not given here.
B1: NB—Pd: HER2 nanobody-HRGDH fusion complexed with Pd after incubation with Pd(OAc)2 at molar ratio 1:1 (conjugate)
VHH: QVQLQESGGGSVQAGGSLKLTCAASGYIFNSCGMGWYRQSPGRERELVSRISGDGDTWHKESVKGRFTISQDNVKKTLYLQMNSLKPEDTAVYFCAVCYNLETYWGQGTQVTVSSGGGGSHRGDHENLYFQSHHHHHH

Experiments:
SK-BR-3 cells [1] = assay: Prodrug-into-drug conversion, extracellular, SK-BR-3; format: cell-based; settings: for catalytic conversion of ProPTX into paclitaxel in cell culture: catalyst 1.4 μM + ProPTX 0.3 μM, SK-BR-3; for cell death: in combination with ProPTX 0.3 μM, SK-BR-3, 5 days, PrestoBlue
Experimental: Error bars: LSD from n=2. Significance was determined by one-way analysis of variance (ANOVA): ^nsP>0.05, *P<0.05.
Error bars: ±SD from n=3.
Extracellular conversion. […] The cells treated with PTX and ProPTX at 0.3 μM were used as positive and negative controls, respectively. After 5d, PrestoBlue cell viability reagent (10% v/v) was added to each well and the plate was incubated for 90 min. […] Experiments were performed in triplicates.
SK-BR-3 cells were seeded and incubated with a solution of Pd(OAc)2 or Pd-peptide (Pd-HRGDHC) in combination with either DMSO or ProPTX (0.3 μM). After 5 days, Presto blue cell viability reagent was added and fluorescence emission was detected using a multilabel plate reader.
After 5d, Presto blue cell viability reagent was added to each well and fluorescence emission was detected using a multilabel fluorescence reader.

[2] = Fluorogenic catalysis of ProRes in PBS versus serum (10% FBS in PBS); settings: 37° C., 24 h
Experimental: (a) Catalytic deprotection of the propargylated dye (ProRes, 100 μM) occurs in the presence of either Pd(OAc)2 (Pd, 1.4 μM), or in the presence of NB-HRGDH-Pd (NB—Pd, 1.4 μM). The catalysis was performed at physiological conditions (pH 7.4, 37° C.) in PBS or in serum (10% FBS in PBS). The fluorescence measurements were normalised against the value of fluorescence after catalysis in PBS (100%) and corrected by the fluorescence of the product, Resorufin, in PBS and serum, respectively. (b) Scheme representing the catalysis of ProRes by NB—Pd in the presence of serum and the catalytic deactivation of Pd(OAc)2 by serum.
In solution. […] The mixtures were shaken at 700 rpm and 37° C. in a Thermomixer, and reactions were monitored after 24 h using a FLUOstar Omega multilabel reader (Ex/Em: 540/590 nm). […] The fluorescence measurements were normalised against the value of fluorescence after catalysis in PBS (100%) and corrected by the fluorescence of the product, Resorufin, in PBS and serum, respectively.
Pd(OAc)2 and Pd-peptide (Pd-HRGDHC) were incubated with the previously described sensor (ProRes) in PBS or in 10% FBS—PBS at 37° C. in a Thermomixer, and reactions were monitored after 24 h using a multilabel reader. Fluorescence increment was observed after catalysis. […]

[3] = Catalytic screening of metallopeptides (ProRes to resorufin fluorescence); settings: Pd-peptides 10 μM, ProRes 100 μM, PBS, 37° C., 24 h
Experimental: Catalytic screening of metallopeptides. Metallopeptides, either mixed or as individual Pd-peptides (Pd-HRGDHC (SEQ ID NO: 6) or Pd-LLEYLKR (SEQ ID NO: 7) (10 μM) were incubated with Pd-labile off/on sensor O-propargyl-resorufin (ProRes)^2 (100 μM) in PBS (500 μL). The mixtures were shaken at 700 rpm and 37° C. in a Thermomixer and reactions were monitored after 24 h using a FLUOstar Omega multilabel reader (Ex/Em: 540/590 nm).

[4] = system: SK-BR-3 breast cancer cells; assay: Dose-response of paclitaxel versus paclitaxel prodrug in SK-BR-3 cells; format: cell-based; settings: Homo sapiens, semilog dose-response
From the text: This vast drop of anticancer activity highlights the essential role of the C2′-OH of PTX for binding its target.

SK-BR-3 cells [5] = settings: read-out: EC50 (cell viability), SK-BR-3, day 5, PrestoBlue
Experimental: Dose-response curves of Pd (Pd(OAc)2) and Pd-peptide (HRGDHC-Pd) at different concentrations (100-1 μM) in HER2+ breast cancer cell line SK-BR-3. Cell viability was measured on day 5 using PrestoBlue reagent. Error bars: ±SD from n=3.
Cell viability was measured on day 5 using PrestoBlue reagent. Error bars: ±SD from n=3.
Cells were seeded in a 96-well plate format (at 2,000 cells per well) and incubated for 24 h before treatment. […] Untreated cells were incubated with DMSO (0.1% v/v). After 5d of incubation, cell viability was determined as described above. All conditions were normalised to the untreated cells (100%) and curves fitted using GraphPad Prism using a sigmoidal variable slope curve. Experiments were performed in triplicates.
Presto blue reagent was added to quantitatively measure viability by fluorescence detection and EC50 values were calculated by plotting dose-response curves.

[6] = system: HER2 negative cells MCF-7; assay: Prodrug-into-drug conversion, intracellular (1 h incubation, wash), MCF-7; format: cell-based; settings: NB—Pd 1 h, washed, then ProPTX 0.3 μM, 5 days
Experimental: Cell viability was measured on day 5 using PrestoBlue reagent. Error bars: LSD from n=3. Significance was determined by one-way analysis of variance (ANOVA): ^nsP>0.05, *P<0.05, **P<0.01, ****P<0.0001.
Intracellular conversion. SK-BR-3 and MCF-7 cells were seeded in a 96-well plate format (at 2,000 cells per well) and incubated for 24 h before treatment. Each well was then replaced with a solution of NB—Pd (20 μg/mL, 1.4 μM) in culture media and incubated for 1 h. Cells were then washed with PBS and fresh media containing either DMSO (0.1% v/v) or ProPTX (0.3 μM) was added. The cells treated with PTX and ProPTX at 0.3 μM were used as positive and negative controls, respectively. After 5d, PrestoBlue cell viability reagent (10% v/v) was added to each well and the plate was incubated for 90 min. Fluorescence emission was detected using a FLUOstar Omega multilabel reader (Ex/Em: 540/590 nm). Experiments were performed in triplicates.
SK-BR-3 and MCF-7 cells (HER2 positive and negative respectively) were seeded and incubated with a solution of NB—Pd for 1 h. Cells were then washed with PBS and fresh media containing either DMSO or ProPTX (0.3 μM) was added. After 5 days, Presto blue cell viability reagent was added and fluorescence emission was detected. […] Results are to be found in FIG. 6.

| Molecule | catalytic conversion of ProPTX into paclitaxel in cell culture (SK-BR-3 cells [1]) | cell death (SK-BR-3 cells [1]) | catalytic activity (conversion of ProRes into fluorescent resorufin) [3] | further results |
| --- | --- | --- | --- | --- |
| HRGDHC-OH [Pd-peptide] | converting the prodrug | > 40% | show catalytic activity | catalytic activity in serum relative to catalytic activity in PBS ([2]; 10% FBS-PBS vs PBS): at least 18% |
| CC(=O)O[C@H]1C(=O)[C@@]2(C)[C@H]([C@H](OC(=O)c3ccccc3)[C@]3(O)C[C@H](OC(=O)[C@H](O)[C@@H](NC(=O)c4ccccc4)c4ccccc4)C(C)=C1C3(C)C)[C@]1(OC(C)=O)CO[C@@H]1C[C@@H]2O [PTX, paclitaxel] | – | – | – | EC50 [4]: 1.8 nM |
| CC(=O)[O-].CC(=O)[O-].[Pd+2] [Pd(OAc)2, reference compound] | Non-significant catalysis | – | – | catalytic activity in serum ([2]; 10% FBS-PBS): lost its catalytic properties; EC50 (SK-BR-3 cells [5]): 23 µM; EC50 (SK-BR-3 cells [5]; listed as Pd): 39 µM |
| C1=C\CC/C=C\CC/1.[Cl][Pd][Cl] [Pd(Cod)Cl2, reference compound] | poor catalytic efficiency | – | – | – |
| LLEYLKR (also: Pd complex) [reference compound] | – | – | does not show any catalytic activity | – |
| B1 | – | > 70% | – | effect on cell viability [6]: no effect |
